Values of other authors as cited in US8491930B2, “Pharmaceutical formulation containing ibuprofen and codeine” (Farmasierra Manufacturing, S.L., priority 2008, dated 2013).

## COc1ccc2c3c1OC1C(O)C=C[C@H]4[C@@H](C2)N(C)CC[C@]314 (stereo partly shown) [Codeine phosphate, 7,8-didehydro-4,5-epoxy-3-methoxy-17-methyl-morphinan-6-ol]
  Solubility in water: soluble in water
